Experimental data: US20120202856A1, “SUBSTITUTED BENZIMDAZOLE DERIVATIVES USEFUL AS TRPM8 RECEPTOR MODULATORS” (priority 2011, published 2012)
Several values for one entry are separate records, joined by “and”; a condition that tells them apart may be missing. Identical values can stand only once. Counter-ions that a name gives are not always drawn. Like-named read-outs stand apart in the source and are kept apart here.

Target: T1, canine TRPM8 (Canis lupus familiaris, UniProt Q1A7N1)
T1 construct: expressed in transfected cells
T1 sequence (Q1A7N1 1-1104): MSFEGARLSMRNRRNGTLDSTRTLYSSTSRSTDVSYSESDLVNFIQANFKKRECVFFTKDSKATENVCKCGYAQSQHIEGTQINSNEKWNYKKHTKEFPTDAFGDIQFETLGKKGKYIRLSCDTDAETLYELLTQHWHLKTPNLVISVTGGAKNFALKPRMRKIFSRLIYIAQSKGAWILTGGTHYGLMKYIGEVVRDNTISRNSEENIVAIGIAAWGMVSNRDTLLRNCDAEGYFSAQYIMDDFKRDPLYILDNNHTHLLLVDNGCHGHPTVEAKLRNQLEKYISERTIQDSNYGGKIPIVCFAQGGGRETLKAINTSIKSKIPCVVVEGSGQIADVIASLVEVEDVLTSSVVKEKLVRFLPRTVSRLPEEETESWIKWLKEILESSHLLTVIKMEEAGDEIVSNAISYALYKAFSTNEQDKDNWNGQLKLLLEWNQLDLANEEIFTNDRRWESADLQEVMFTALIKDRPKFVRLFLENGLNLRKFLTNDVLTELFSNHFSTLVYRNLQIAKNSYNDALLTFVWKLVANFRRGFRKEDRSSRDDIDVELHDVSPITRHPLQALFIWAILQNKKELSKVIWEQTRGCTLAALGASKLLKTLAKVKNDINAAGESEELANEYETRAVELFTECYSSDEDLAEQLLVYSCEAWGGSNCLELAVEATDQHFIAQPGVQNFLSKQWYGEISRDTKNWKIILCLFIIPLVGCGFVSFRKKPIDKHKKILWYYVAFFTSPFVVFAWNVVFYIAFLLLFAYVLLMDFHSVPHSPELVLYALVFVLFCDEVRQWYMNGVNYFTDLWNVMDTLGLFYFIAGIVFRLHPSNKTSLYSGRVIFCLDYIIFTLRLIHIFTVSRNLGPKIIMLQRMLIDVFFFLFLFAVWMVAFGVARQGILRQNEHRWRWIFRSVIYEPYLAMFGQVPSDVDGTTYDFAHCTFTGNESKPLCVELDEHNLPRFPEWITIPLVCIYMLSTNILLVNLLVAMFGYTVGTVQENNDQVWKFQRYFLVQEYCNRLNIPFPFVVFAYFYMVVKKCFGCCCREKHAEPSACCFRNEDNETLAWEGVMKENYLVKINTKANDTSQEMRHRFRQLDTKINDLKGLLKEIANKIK
Test: In Vitro Canine TRPM8 Functional Assay (intracellular Ca2+ fluorescence, icilin activation, HEK293 cells)
Assay type: cell-based
Details: for IC50: HEK293 cells expressing canine TRPM8, icilin activation, individually measured values (batches/salt forms), read-out: IC50 (nM), in vitro TRP M8 Activity
Method in brief: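 HEK293 cells expressing canine TRPM8 loaded with Calcium 3 dye, then stimulated with icilin; intracellular Ca2+ rise read on FLIPR or FDSS. Peak fluorescence minus basal normalized to percent maximal response; IC50 from sigmoidal nonlinear regression of quadruplicate wells.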

[1] = HEK293, 0.2 μM test compound, individually measured values, read-out: % Inh (%) @0.2 μM, in vitro TRP M8 Activity

SMILES | IC50 | inhibition at 0.2 µM [1] [%] | further results
Cc1c(C(C)(C)C)nn(C)c1-c1nc2cc(-c3ccccc3F)ccc2[nH]1 [Compound 93, 2-(5-tert-Butyl-2,4-dimethyl-2H-pyrazol-3-yl)-5-(2-fluoro-phenyl)-1H-benzimidazole hydrochloride] | 10.9 nM | – | –
FC(F)(F)Oc1ccccc1-c1ccc2[nH]c(-c3cc(C4CC4)no3)nc2c1 [Compound 17, 2-(3-cyclopropylisoxazol-5-yl)-5-(2-trifluoromethoxyphenyl)-1H-benzimidazole sodium salt] | 52 nM | – | –
Cc1nc(C(C)(C)C)oc1-c1nc2cc(-c3ccccc3OC(F)(F)F)cc(C(F)(F)F)c2[nH]1 [Compound 176, 2-(2-tert-Butyl-4-methyl-oxazol-5-yl)-5-(2-trifluoromethoxy-phenyl)-7-trifluoromethyl-1H-benzimidazole hydrochloride] | – | 60 | –
Cn1nc(C2(C)CC2)cc1-c1nc2cc(-c3ccccc3C(F)(F)F)ccc2[nH]1 [Compound 52, 2-[2-Methyl-5-(1-methylcyclopropyl)-2H-pyrazol-3-yl]-5-(2-trifluoromethylphenyl)-1H-benzimidazole sodium salt] | 17.6 nM | – | –
CCCc1cc(-c2nc3ccc(-c4ccccc4C(F)(F)F)cc3[nH]2)on1 [Compound 18, 2-(3-Propylisoxazol-5-yl)-6-(2-trifluoromethylphenyl)-1H-benzimidazole hydrochloride] | 27 nM | – | –
CC(C)(C)c1cc(-c2nc3cc(-c4ccccc4OC(F)(F)F)ccc3[nH]2)n(Cc2ccccc2)n1 [Compound 49, 2-(5-tert-Butyl-2-benzyl-2H-pyrazol-3-yl)-5-(2-trifluoromethoxyphenyl)-1H-benzimidazole sodium salt] | 42.3 nM | – | –
Cc1oc(-c2nc3cc(-c4ccccc4C(F)(F)F)cc(C(F)(F)F)c3[nH]2)nc1C(C)(C)C [Compound 194, 2-(4-tert-Butyl-5-methyl-oxazol-2-yl)-7-trifluoromethyl-5-(2-trifluoromethyl-phenyl)-1H-benzimidazole hydrochloride] | – | 63 | –
Cn1nc(-c2nc3cc(-c4ccccc4C(F)(F)F)ccc3[nH]2)cc1C1CCC1 [Compound 91, 2-(5-Cyclobutyl-1-methyl-1H-pyrazol-3-yl)-5-(2-trifluoromethyl-phenyl)-1H-benzimidazole] | – | 7 | –
Cc1c(C(C)(C)C)nn(C)c1-c1nc2cc(-c3ccccc3Cl)cc(Cl)c2[nH]1 [Compound 134, 2-(5-tert-Butyl-2,4-dimethyl-2H-pyrazol-3-yl)-7-chloro-5-(2-chloro-phenyl)-1H-benzimidazole hydrochloride] | 5.6 nM and 10.9 nM | 99 | –
CCOc1ccccc1-c1ccc2[nH]c(-c3cc(C(C)C)no3)nc2c1 [Compound 6, 2-(3-Isopropylisoxazol-5-yl)-5-(2-ethoxyphenyl)-1H-benzimidazole sodium salt] | 64.4 nM | – | –
Cn1nc(C(C)(C)C)c(Cl)c1-c1nc2cc(-c3ccccc3Cl)cc(C(F)(F)F)c2[nH]1 [Compound 128, 2-(5-tert-Butyl-4-chloro-2-methyl-2H-pyrazol-3-yl)-5-(2-chloro-phenyl)-7-trifluoromethyl-1H-benzimidazole sodium salt] | 2.7 nM and 5.1 nM | 99 | –
Cc1c(C(C)(C)C)noc1-c1nc2cc(-c3ccccc3Cl)ccc2[nH]1 [Compound 107, 2-(3-tert-Butyl-4-methyl-isoxazol-5-yl)-5-(2-chloro-phenyl)-1H-benzimidazole hydrochloride] | 11.9 nM | – | –
Cn1nc(C(C)(C)C)cc1-c1nc2cc(-c3ccccc3OC(F)F)ccc2[nH]1 [Compound 81, 2-(5-tert-Butyl-2-methyl-2H-pyrazol-3-yl)-5-(2-difluoromethoxyphenyl)-1H-benzimidazole hydrochloride] | 2 nM and 7 nM | – | –
FC(F)(F)c1ccccc1-c1ccc2[nH]c(-c3cc(C4CCCC4)no3)nc2c1 [Compound 92, 2-(3-Cyclopentylisoxazol-5-yl)-5-(2-trifluoromethylphenyl)-1H-benzimidazole] | 24.5 nM | – | –
CC(C)c1cc(-c2nc3cc(-c4ccccc4OC(F)(F)F)ccc3[nH]2)on1 [Compound 5, 2-(3-Isopropylisoxazol-5-yl)-5-(2-trifluoromethoxyphenyl)-1H-benzimidazole sodium salt] | 22.5 nM | – | –
Cn1nc(C(C)(C)C)c(Cl)c1-c1nc2cc(-c3c(F)cccc3OC(F)(F)F)ccc2[nH]1 [Compound 88, 2-(5-tert-Butyl-4-chloro-2-methyl-2H-pyrazol-3-yl)-5-(2-fluoro-6-trifluoromethoxy-phenyl)-1H-benzimidazole hydrochloride] | 3.6 nM and 9.7 nM | – | –
FC(F)(F)c1ccccc1-c1ccc2nc(-c3cc(C4CCCCC4)no3)[nH]c2c1 [Compound 24, 2-(3-Cyclohexylisoxazol-5-yl)-6-(2-trifluoromethylphenyl)-1H-benzimidazole hydrochloride] | – | 63 | –

SMILES | IC50 | inhibition at 0.2 µM [1] [%] | further results
COc1ccc(F)cc1-c1ccc2[nH]c(-c3cc(C(C)(C)C)no3)nc2c1 [Compound 105, 2-(3-tert-Butyl-isoxazol-5-yl)-5-(5-fluoro-2-methoxy-phenyl)-1H-benzimidazole hydrochloride] | 16.4 nM | – | –
Cc1c(C(C)(C)C)nn(C)c1-c1nc2cc(-c3ccccc3F)cc(C(F)(F)F)c2[nH]1 [Compound 118, 2-(5-tert-Butyl-2,4-dimethyl-2H-pyrazol-3-yl)-5-(2-fluoro-phenyl)-7-trifluoromethyl-1H-benzimidazole hydrochloride] | 9.6 nM | – | –
Cn1nc(C(C)(C)C)c(Cl)c1-c1nc2cc(-c3ccccc3F)cc(C(F)(F)F)c2[nH]1 [Compound 127, 2-(5-tert-Butyl-4-chloro-2-methyl-2H-pyrazol-3-yl)-5-(2-fluoro-phenyl)-7-trifluoromethyl-1H-benzimidazole hydrochloride] | 11.5 nM and 6.3 nM | 99 | –
Cc1nc(C(C)(C)C)oc1-c1nc2cc(-c3ccccc3C(F)(F)F)cc(C(F)(F)F)c2[nH]1 [Compound 177, 2-(2-tert-Butyl-4-methyl-oxazol-5-yl)-7-trifluoromethyl-5-(2-trifluoromethyl-phenyl)-1H-benzimidazole hydrochloride] | – | 11 | –
CCn1nc(C(C)(C)C)cc1-c1nc2cc(-c3ccccc3OC(F)(F)F)ccc2[nH]1 [Compound 45, 2-(5-tert-butyl-2-ethyl-2H-pyrazol-3-yl)-5-(2-trifluoromethoxyphenyl)-1H-benzimidazole sodium salt] | 51.2 nM | – | –
Cn1nc(C(C)(C)C)c(Cl)c1-c1nc2cc(-c3c(F)cccc3C#N)cc(C(F)(F)F)c2[nH]1 [Compound 146, 2-[2-(5-tert-Butyl-4-chloro-2-methyl-2H-pyrazol-3-yl)-7-trifluoromethyl-1H-benzimidazol-5-yl]-3-fluoro-benzonitrile hydrochloride] | 12.2 nM and 15 nM | 100 | –
CC(C)n1nc(C(C)(C)C)cc1-c1nc2cc(-c3ccccc3C(F)(F)F)ccc2[nH]1 [Compound 46, 2-(5-tert-Butyl-2-isopropyl-2H-pyrazol-3-yl)-5-(2-trifluoromethylphenyl)-1H-benzimidazole sodium salt] | 21 nM | – | –
CC(C)c1cc(-c2nc3cc(-c4ccccc4)ccc3[nH]2)on1 [Compound 1, 2-(3-Isopropylisoxazol-5-yl)-5-phenyl-1H-benzimidazole sodium salt] | 111 nM | – | –
Cc1oc(-c2nc3cc(-c4ccccc4Cl)cc(C(F)(F)F)c3[nH]2)nc1C(C)(C)C [Compound 196, 2-(4-tert-Butyl-5-methyl-oxazol-2-yl)-5-(2-chloro-phenyl)-7-trifluoromethyl-1H-benzimidazole hydrochloride] | – | 39 | –
Cc1ccccc1-c1ccc2[nH]c(-c3cc(C(C)(C)C)no3)nc2c1 [Compound 65, 2-(3-tert-Butyl-isoxazol-5-yl)-5-o-tolyl-1H-benzimidazole trifluoroacetic acid salt] | 15.5 nM | – | –
CCc1ccccc1-c1ccc2[nH]c(-c3cc(C(C)(C)C)nn3C)nc2c1 [Compound 56, 2-(5-tert-Butyl-2-methyl-2H-pyrazol-3-yl)-5-(2-ethyl-phenyl)-1H-benzimidazole trifluoroacetic acid salt] | 10.7 nM | – | –
Cl.Cn1nc(C(C)(C)C)c(C#N)c1-c1nc2cc(-c3ccccc3Cl)cc(C(F)(F)F)c2[nH]1 [Compound 148, 3-tert-Butyl-5-[5-(2-chloro-phenyl)-7-trifluoromethyl-1H-benzimidazol-2-yl]-1-methyl-1H-pyrazole-4-carbonitrile hydrochloride] | 5 nM and 4.1 nM and 2.9 nM | 100 | % Inh (%) @0.2 μM, in vitro TRP M8 Activity (0.2 μM test compound, individually measured values, hydrochloride, 0.2 µM): 99%
Cc1oc(C(C)(C)C)nc1-c1nc2cc(-c3ccccc3Cl)cc(Cl)c2[nH]1 [Compound 163, 2-(2-tert-Butyl-5-methyl-oxazol-4-yl)-7-chloro-5-(2-chloro-phenyl)-1H-benzimidazole hydrochloride] | – | 62 | –
CC(C)(C)c1cc(-c2nc3cc(-c4ccccc4C(F)(F)F)cc(C(F)(F)F)c3[nH]2)on1 [Compound 142, 2-(3-tert-Butyl-isoxazol-5-yl)-7-trifluoromethyl-5-(2-trifluoromethyl-phenyl)-1H-benzimidazole sodium salt] | 3 nM and 3.3 nM | – | inhibition at 0.2 µM (HEK293, read-out: % Inh (%) @0.2 μM, in vitro TRP M8 Activity, 0.2 μM test compound, individually measured values): 99%
CC(C)(C)c1cc(-c2nc3cc(-c4c(F)cccc4C(F)(F)F)cc(C(F)(F)F)c3[nH]2)on1 [Compound 144, 2-(3-tert-Butyl-isoxazol-5-yl)-5-(2-fluoro-6-trifluoromethyl-phenyl)-7-trifluoromethyl-1H-benzimidazole hydrochloride] | 3.9 nM and 4 nM | 99 | –
Cc1oc(C(C)(C)C)nc1-c1nc2cc(-c3ccccc3C(F)(F)F)cc(Cl)c2[nH]1 [Compound 165, 2-(2-tert-Butyl-5-methyl-oxazol-4-yl)-7-chloro-5-(2-trifluoromethyl-phenyl)-1H-benzimidazole hydrochloride] | – | 27 | –
